Source: ChEMBL document CHEMBL4673236, “Synthesis and biological effect of lysosome-targeting fluorescent anion transporters with enhanced anionophoric activity” (Bioorg Med Chem Lett, 2020)
Active and inactive are the calls of the source. The rule behind the calls is not given here.

How the values were obtained:
[1] = Drug localization in lysosome of human HeLa cells at 20 uM incubated for 6 hrs by confocal microscopic analysis; format: ADME, subcellular
[2] = Aniono-phoric activity in egg-yolk L-aphosphatidylcholine vesicle assessed as increase in efflux of chloride ion at 0.5 mol% by electrode technique
[3] = Aniono-phoric activity in egg-yolk L-aphosphatidylcholine vesicle assessed as increase in efflux of chloride ion by pH discharge experiment
[4] = Induction of lysosome alkalization in human HeLa cells assessed as pixel intensity ratio of red fluorescence to green fluorescence at 5 uM incubated for 4 hrs by acridine orange staining based confocal microscopic analysis relative to control; format: subcellular
[5] = system: HeLa; test: Induction of lysosomal alkalization in human HeLa cells assessed as reduction in Cathepsin B activity at 5 uM using MR-(RR2) as substrate preincubated for 5 hrs followed by substrate addition and measured after 1 hr by confocal microscopic analysis; format: functional, cell-based; details: time 6.0 hrs
[6] = Induction of lysosome alkalization in human HeLa cells assessed as increase in lysosomal pH incubated for 4 hrs by LysoSensor Green […] staining based confocal microscopic analysis; format: subcellular; details: dose 1.5-5 µM
[7] = Induction of lysosome alkalization in human HeLa cells incubated for 4 hrs by acridine orange staining based confocal microscopic analysis; format: subcellular; details: dose 1.5-5 µM

Drug uptake [1]	Activity [2]	EC50 [3]	Ratio [4]	Activity [6]	Activity [7]	Structure (SMILES)	Activity [5]
Not Active	inactive	Nd(Insoluble)				Cc1cc(=O)oc2cc(Nc3c(Nc4ccccc4)c(=O)c3=O)ccc12	
	inactive	Nd(Insoluble)	0.69	Dose-dependent effect	Dose-dependent effect	Cc1cc(=O)oc2cc(Nc3c(Nc4ccc(N5CCOCC5)cc4)c(=O)c3=O)ccc12	Active
Active	Active	9.09 mol%	0.08	Dose-dependent effect	Dose-dependent effect	O=c1cc(CN2CCOCC2)c2ccc(Nc3c(Nc4cc(C(F)(F)F)cc(C(F)(F)F)c4)c(=O)c3=O)cc2o1	Active
Active	inactive	0.11 mol%	0.52	Dose-dependent effect	Dose-dependent effect	O=c1cc(CN2CCOCC2)c2ccc(Nc3c(Nc4ccc(C(F)(F)F)cc4)c(=O)c3=O)cc2o1	Active
